Publication PMC10250256, “A radiohybrid theranostics ligand labeled with fluorine-18 and lutetium-177 for fibroblast activation protein-targeted imaging and radionuclide therapy” (European Journal of Nuclear Medicine and Molecular Imaging, 2023)

Key:
HT-1080 cells = assay: cell uptake in HT-1080 (FAP negative) cells; type: cell-based, human
Method: The human fibrosarcoma cell lines HT-1080 and HT-1080-FAP transferred with human FAP gene were both cultured in Dulbecco modified Eagle medium supplemented with 10% fetal bovine serum (Gibco, USA) at 37℃/5% carbon dioxide. For cell uptake experiments, HT-1080-FAP cells (~ 1 × 10^5/well) or HT-1080 (~ 1 × 10^5/well) were seeded in 24-well plates for 24–48 h and incubated at 37℃ with radiolabeled compounds (74 kBq/well) in 0.5 mL of serum-free medium for indicated times. Non-specific binding was determined by co-incubating with 100 μM FAP inhibitor UAMC1110. For competitive FAP binding assays, HT-1080-FAP cells were incubated with [^177Lu]Lu-FAPI-04 (74 kBq/well) in the presence of different concentrations (10^−3–10^4 nM) of competing non-radioactive ligands. For internalization experiments, the radiotracer-incubated cells were washed twice with PBS (pH 7.4), followed by glycine–HCl (0,05 M, pH = 2.8) solution to distinguish between cell surface–bound (acid-releasable) and internalized (acid-resistant) radioligand. For efflux experiments, cells were preincubated with [^177Lu]21 or [^177Lu]Lu-FAPI-04 for 1 h and subsequently incubated at 37 °C in a medium free of radiotracer and serum for different time periods. […] Cell lysates were collected and the radioactivity was determined using a γ-counter.

[1] = in vivo stability in ICR mice, blood samples (radio-HPLC)
Method: [^18F]21 or [^177Lu]21 (50 μCi, 10 μL) was added to PBS (90 μL) or murine serum (90 μL) and the mixture was incubated at 37 °C for a certain time ([^18F]21: 2 h, [^177Lu]21: 8 d). The PBS mixture was injected directly into the radio-HPLC for analysis. The murine serum was precipitated with 0.1 mL of acetonitrile and centrifuged (10,000 rpm, 5 min). The supernatant was measured and analyzed by the radio-HPLC to determine the stability. For in vivo stability study, the radio tracers were injected into the tail vein of ICR mice and samples of blood were collected after a certain time post injection (pi) ([^18F]21: 4 h, [^177Lu]21: 9 h). The plasma proteins were precipitated using an equal volume of acetonitrile and centrifuged (10,000 rpm, 5 min). The RCP of radio tracer in supernatants were analyzed and quantified by radio-HPLC. The radio-HPLC method was as follows: A: 0.1% TFA in H2O, B: ACN, 0–10 min, 0–100% B. The flow rate was 1 mL/min, and the C18 column (4.6 × 150 mm, 5 μm, ZORBAX, Agilent) was used. When using HPLC to assess the stability of [^177Lu]21, the effluent was collected every 30 s due to its less radioactivity, and samples were measured by an automatic γ-counter (2480 Wizard2, Perkin Elmer). The counted samples were plotted as intensity (cpm) against fraction.

[2] = system: HT-1080-FAP tumor-bearing mice; assay: biodistribution in HT-1080-FAP tumor-bearing mice; type: in vivo, BALB/C-nu/nu mice; conditions: i.v.
Method: All animal experiments were conducted in compliance with a protocol approved by the First Affiliated Hospital of Sun Yat-sen University Institutional Animal Care and Use Committee. BALB/C-nu/nu mice (4–5-week old with body weight of 16–22 g) were purchased from GemPharmatech Co., Ltd. Mice were housed under standard conditions with temperature and light control (12-h-light/12-h-dark cycle) and had free access to water and food. For the tumor model, HT-1080-FAP or HT-1080 cells (5 × 10^6) were subcutaneously injected into the right or left flank of nude mice, respectively. As the tumor diameter reached 3–4 mm, mice were treated with radioligands. Micro-PET and SPECT imaging studies, as well as biodistribution, were conducted when the tumor diameter reached 5–10 mm.
[^177Lu]21 (~ 0.925 MBq) was injected via the tail vein of HT-1080-FAP tumor-bearing mice. The animals were sacrificed at 4, 24, 48 and 96 h pi. Organs of interest were dissected, weighed and counted with a γ-counter. The data were normalized to percentage injected dose (%ID/g) with standard dilution of the initial dose. The biodistribution of [^177Lu]Lu-FAPI-04 was conducted at 24 h pi for comparison.

For `CC(C)(C)[Si](F)(c1ccc(C(=O)NCC(NC(=O)CCC(C(=O)O)N2CCN(CC(=O)[O-])CCN(CC(=O)[O-])CCN(CC(=O)[O-])CC2)C(=O)NCC2CCC(C(=O)NCCCOc3ccc4nccc(C(=O)NCC(=O)N5CC(F)(F)CC5C#N)c4c3)CC2)cc1)C(C)(C)C.[177Lu+3]` (centres unmarked) [[^177Lu]21], the “cell uptake in FAP negative cells” value (HT-1080 cells) was “Almost no uptakes”, the “metabolization in blood samples (radio-HPLC)” value ([1]; ICR mice, within 9 h pi) was “little evidence of any metabolization” and the in vivo stability ([1]; as summarised in discussion) was over 90%. For the same molecule, the “Tumor/ Kidney ratio” value ([2]; 4 h pi) was 2.15 ± 0.55, the Tumor/Blood ratio ([2]; 4 h pi) was 2.63 ± 0.23 and the Tumor/Liver ratio ([2]; 4 h pi) was 3.98 ± 1.00. For the same molecule, the Tumor/Muscle ratio ([2]; 4 h pi) was 6.36 ± 0.27, the “uptake in HT-1080-FAP tumor” value ([2]; 4 h pi) was 9.82 ± 1.35 %ID/g and the uptake in blood ([2]; 4 h pi) was 3.73 ± 0.36 %ID/g. The uptake in bone ([2]; 4 h pi) was 6.76 ± 0.51 %ID/g, the uptake in brain ([2]; 4 h pi) was 0.14 ± 0.01 %ID/g and the uptake in heart ([2]; 4 h pi) was 1.97 ± 0.09 %ID/g. For the same molecule, the uptake in intestine ([2]; 4 h pi) was 2.12 ± 0.5 %ID/g, the uptake in kidney ([2]; 4 h pi) was 4.70 ± 0.89 %ID/g and the uptake in liver ([2]; 4 h pi) was 2.56 ± 0.57 %ID/g. The uptake in lung ([2]; 4 h pi) was 3.33 ± 0.97 %ID/g, the uptake in muscle ([2]; 4 h pi) was 1.54 ± 0.14 %ID/g and the uptake in pancreas ([2]; 4 h pi) was 4.03 ± 0.93 %ID/g. It also gave an uptake in skin ([2]; 4 h pi) of 3.60 ± 0.56 %ID/g, an uptake in spleen ([2]; 4 h pi) of 1.53 ± 0.25 %ID/g and an uptake in stomach ([2]; 4 h pi) of 1.80 ± 0.52 %ID/g. The “Tumor/ Kidney ratio” value ([2]; 24 h pi) was 1.73 ± 0.32, the Tumor/Blood ratio ([2]; 24 h pi) was 13.77 ± 4.99 and the Tumor/Liver ratio ([2]; 24 h pi) was 1.84 ± 0.41. The Tumor/Muscle ratio ([2]; 24 h pi) was 7.03 ± 1.39, the “uptake in HT-1080-FAP tumor” value ([2]; 24 h pi) was 2.98 ± 0.98 %ID/g and the uptake in blood ([2]; 24 h pi) was 0.22 ± 0.03 %ID/g. The uptake in bone ([2]; 24 h pi) was 2.46 ± 0.74 %ID/g, the uptake in brain ([2]; 24 h pi) was 0.02 ± 0.00 %ID/g and the uptake in heart ([2]; 24 h pi) was 0.61 ±0.43 %ID/g. For the same molecule, the uptake in intestine ([2]; 24 h pi) was 0.37 ± 0.03 %ID/g, the uptake in kidney ([2]; 24 h pi) was 1.72 ± 0.45 %ID/g and the uptake in liver ([2]; 24 h pi) was 1.63 ± 0.44 %ID/g. It also gave an uptake in lung ([2]; 24 h pi) of 0.46 ± 0.11 %ID/g, an uptake in muscle ([2]; 24 h pi) of 0.42 ± 0.09 %ID/g and an uptake in pancreas ([2]; 24 h pi) of 0.69 ± 0.14 %ID/g. It also gave an uptake in skin ([2]; 24 h pi) of 1.07 ± 0.32 %ID/g, an uptake in spleen ([2]; 24 h pi) of 0.69 ± 0.13 %ID/g and an uptake in stomach ([2]; 24 h pi) of 0.39 ± 0.11 %ID/g. The “Tumor/ Kidney ratio” value ([2]; 48 h pi) was 1.60 ± 0.19, the Tumor/Blood ratio ([2]; 48 h pi) was 56.58 ± 6.63 and the Tumor/Liver ratio ([2]; 48 h pi) was 3.66 ± 0.52. For the same molecule, the Tumor/Muscle ratio ([2]; 48 h pi) was 11.31 ± 1.41, the “uptake in HT-1080-FAP tumor” value ([2]; 48 h pi) was 2.43 ± 0.04 %ID/g and the uptake in blood ([2]; 48 h pi) was 0.04 ± 0.01 %ID/g. It also gave an uptake in bone ([2]; 48 h pi) of 3.09 ± 0.86 %ID/g, an uptake in heart ([2]; 48 h pi) of 0.27 ± 0.05 %ID/g and an uptake in intestine ([2]; 48 h pi) of 0.12 ± 0.02 %ID/g. It also gave an uptake in kidney ([2]; 48 h pi) of 1.53 ± 0.21 %ID/g, an uptake in liver ([2]; 48 h pi) of 0.67 ± 0.11 %ID/g and an uptake in lung ([2]; 48 h pi) of 0.53 ± 0.4 %ID/g. It also gave an uptake in muscle ([2]; 48 h pi) of 0.22 ± 0.03 %ID/g, an uptake in pancreas ([2]; 48 h pi) of 0.35 ± 0.04 %ID/g and an uptake in skin ([2]; 48 h pi) of 0.58 ± 0.09 %ID/g. For the same molecule, the uptake in spleen ([2]; 48 h pi) was 0.81 ± 0.18 %ID/g, the uptake in stomach ([2]; 48 h pi) was 0.32 ± 0.04 %ID/g and the “Tumor/ Kidney ratio” value ([2]; 96 h pi) was 1.11 ± 0.04. For the same molecule, the Tumor/Blood ratio ([2]; 96 h pi) was 102.33 ± 11.24, the Tumor/Liver ratio ([2]; 96 h pi) was 0.93 ± 0.01 and the Tumor/Muscle ratio ([2]; 96 h pi) was 9.0 ± 1.35. The “uptake in HT-1080-FAP tumor” value ([2]; 96 h pi) was 1.02 ± 0.11 %ID/g, the uptake in blood ([2]; 96 h pi) was 0.01 ± 0.00 %ID/g and the uptake in bone ([2]; 96 h pi) was 3.02 ± 0.69 %ID/g. For the same molecule, the uptake in brain ([2]; 96 h pi) was 0.01 ± 0.00 %ID/g, the uptake in heart ([2]; 96 h pi) was 0.16 ± 0.03 %ID/g and the uptake in intestine ([2]; 96 h pi) was 0.11 ± 0.01 %ID/g. The uptake in kidney ([2]; 96 h pi) was 0.92 ± 0.13 %ID/g, the uptake in liver ([2]; 96 h pi) was 1.10 ± 0.12 %ID/g and the uptake in lung ([2]; 96 h pi) was 0.57 ± 0.34 %ID/g. It also gave an uptake in muscle ([2]; 96 h pi) of 0.12 ± 0.03 %ID/g, an uptake in pancreas ([2]; 96 h pi) of 0.15 ± 0.03 %ID/g and an uptake in skin ([2]; 96 h pi) of 0.35 ± 0.05 %ID/g. For the same molecule, the uptake in spleen ([2]; 96 h pi) was 0.43 ± 0.07 %ID/g and the uptake in stomach ([2]; 96 h pi) was 0.20 ± 0.01 %ID/g.
